Measurements as given in PubChem BioAssay (NCI).
“And” between values parts separate entries of the source, which are not always exact repeats. Equal entries are not always repeated.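 Grown in 96-well plates, cells were treated for 48 hours with each compound at five concentrations. Insufficient inhibition: endpoint recorded as highest concentration tested. The concentration for 50% growth inhibition is given as GI50. At the TGI there is no net growth.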

Key:
Experiment in all cases: DTP human tumour cell line panel, 48 h; in the data active = GI50 below about 0.43 µM; inactive = the rest
[1] = test system: ACHN renal
[2] = test system: NCI-H522 lung
[3] = test system: OVCAR-5 ovarian
[4] = test system: SK-MEL-2 melanoma
[5] = test system: SK-MEL-28 melanoma
[6] = test system: SNB-19 CNS
[7] = test system: SR leukemia
[8] = test system: UACC-257 melanoma
[9] = test system: SK-OV-3 ovarian
[10] = test system: PC-3 prostate

C=CCNC1=C(C(=O)OCC)C(=O)CO1
> 100 µM: TGI [1] | TGI [2] | TGI [3] | TGI [4] | TGI [5] | TGI [6] | TGI [7] | TGI [8]

FC(F)(F)c1ccc(C=NC23CC4CC(CC(C4)C2)C3)cc1
> 100 µM: TGI [1] | TGI [2] | TGI [3] | TGI [4] | TGI [5] | TGI [9] | TGI [6] | TGI [7] | TGI [8]

Cc1c(O)c(=O)ccn1C1OC(CO)C(O)C1O (centres undefined)
> 100 µM: TGI [1] | TGI [2] | TGI [3] | TGI [4] | TGI [5] | TGI [9] | TGI [6] | TGI [7] | TGI [8]

Cc1ccc(S(=O)(=O)CNC(=S)CCCC(=S)NCS(=O)(=O)c2ccc(C)cc2)cc1
> 100 µM: TGI [2] | TGI [3] | TGI [9] | TGI [6] | TGI [7] | TGI [8]

O=C(CC/C(C/C(=N/O)c1ccc(F)cc1)=N/O)N(Cc1ccccc1)Cc1ccccc1
> 100 µM: TGI [1] | TGI [2] | TGI [3] | TGI [4] | TGI [5] | TGI [6] | TGI [8]

O=C1C(Cl)=C(Nc2ccc3cn[nH]c3c2)C(=O)c2ccccc21
3.54 µM: TGI [4]
2.61 µM: TGI [1]
24.3 µM: TGI [9]
3.33 µM: TGI [6]
2.44 µM: TGI [10]
3.21 µM: TGI [3]
3.06 µM: TGI [8]
2.94 µM: TGI [2]
3.01 µM: TGI [5]
inactive: GI50 [1] 1.33 µM | GI50 [2] 1.55 µM | GI50 [3] 1.8 µM | GI50 [10] 1.17 µM | GI50 [4] 1.71 µM | GI50 [5] 1.65 µM | GI50 [9] 12 µM | GI50 [6] 1.66 µM | GI50 [8] 1.66 µM

CC(=O)O[C@H]1[C@@H]2[C@@H]3[C@@H](C[C@H]1C)[C@@H](C)CO[C@@]1(C)CC/C=C(/C)C[C@@H]2O[C@@H]31
> 100 µM: TGI [1] | TGI [2] | TGI [3] | TGI [4] | TGI [5] | TGI [9] | TGI [6] | TGI [7] | TGI [8]

Cc1ccc(-c2ccc(Nc3c4ccccc4nc4ccccc34)cc2)cn1
6.56 µM: TGI [7]
28.8 µM: TGI [10]
9.18 µM: TGI [5]
28.5 µM: TGI [8]
6.76 µM: TGI [1]
3.63 µM: TGI [4]
69.5 µM: TGI [3]
> 100 µM: TGI [6]

COc1cc2c3c(n(CCCN4CCN(C)CC4)c(=O)c2cc1OC)-c1cc2c(cc1C3=O)OCO2
31.4 µM: TGI [3]
> 100 µM: TGI [4] | TGI [6] | TGI [8]
45.4 µM: TGI [2]
34 µM: TGI [9]
inactive: GI50 [1] 10.1 µM | GI50 [2] 15.4 µM | GI50 [3] 17.6 µM | GI50 [10] 15.8 µM | GI50 [4] > 100 µM | GI50 [5] 16.5 µM | GI50 [9] 12.3 µM | GI50 [6] > 100 µM | GI50 [8] > 100 µM
22.4 µM: TGI [1]
36.4 µM: TGI [10]
43.2 µM: TGI [5]

Cc1cc(S(=O)(=O)Nc2nc3ccsc3c(=O)n2Cc2ccco2)c(S)cc1Cl
29.7 µM: TGI [7]
> 100 µM: TGI [1] | TGI [2] | TGI [3] | TGI [10] | TGI [5] | TGI [6] | TGI [8]
inactive: GI50 [1] > 100 µM | GI50 [2] > 100 µM | GI50 [3] > 100 µM | GI50 [10] > 100 µM | GI50 [5] > 100 µM | GI50 [6] 99 µM | GI50 [7] 9.95 µM | GI50 [8] > 100 µM

CCCCCCCCCCCCCC/C(C(=O)OC)=C(/O)C(=O)OCC
> 100 µM: TGI [1] | TGI [2] | TGI [9] | TGI [6] | TGI [8]
32 µM: TGI [4]
50.8 µM: TGI [5]
70.1 µM: TGI [3]

C/C(=N\NC(=O)CC(=O)Nc1ccc(Cl)cc1)c1cc2ccccc2oc1=O
> 100 µM: TGI [1] | TGI [2] | TGI [5] | TGI [9] | TGI [6] | TGI [8]

O=C1c2cccnc2-c2nc(/C=C/c3ccccc3)cc3c2c1nc1ccccc13
4.18 µM: TGI [5]
17 µM: TGI [9]
13.6 µM: TGI [10]
25.4 µM: TGI [3]
6.3 µM: TGI [8]
6.13 µM: TGI [6]
3.47 µM: TGI [2]
5.54 µM: TGI [1]
inactive: GI50 [1] 1.94 µM | GI50 [2] 1.76 µM | GI50 [3] 11.8 µM | GI50 [10] 1.97 µM | GI50 [4] 2.14 µM | GI50 [5] 2.3 µM | GI50 [9] 7.1 µM | GI50 [6] 2.51 µM | GI50 [8] 2.35 µM
4.99 µM: TGI [4]

O=C(O)c1cc2ccccc2c(N=Nc2c([N+](=O)[O-])cc([N+](=O)[O-])cc2S(=O)(=O)O)c1O
> 100 µM: TGI [1] | TGI [2] | TGI [3] | TGI [10] | TGI [4] | TGI [5] | TGI [9] | TGI [6] | TGI [8]

CC1C=C(OC(=O)c2ccccc2)C(=O)C(n2cc(F)c(=O)n(C(=O)c3ccccc3)c2=O)O1 (centres undefined)
> 100 µM: TGI [1] | TGI [4] | TGI [5] | TGI [9] | TGI [6] | TGI [8]

N#C/C(=C\c1ccc(Br)cc1)n1nnc2cccc(F)c21
inactive: GI50 [1] 1.41 µM | GI50 [3] 1.77 µM | GI50 [10] 0.943 µM | GI50 [4] 1.96 µM | GI50 [5] 1.87 µM | GI50 [6] 1.63 µM | GI50 [8] 1.86 µM
3.17 µM: TGI [10]
5.14 µM: TGI [4]
5.43 µM: TGI [8]
3.48 µM: TGI [1] | TGI [3]
3.97 µM: TGI [5]
3.35 µM: TGI [6]

O=C1c2ccccc2S(=O)(=O)N1CSC(=S)N1CCCC1
> 100 µM: TGI [1] | TGI [2] | TGI [3] | TGI [10] | TGI [4] | TGI [5] | TGI [9] | TGI [6] | TGI [8]
inactive: GI50 [1] > 100 µM | GI50 [2] 12.1 µM | GI50 [3] > 100 µM | GI50 [10] 7.62 µM | GI50 [4] > 100 µM | GI50 [5] > 100 µM | GI50 [9] > 100 µM | GI50 [6] > 100 µM | GI50 [8] > 100 µM

Cn1cc2c(n1)c(N/N=C/c1ccccc1)nn1nnnc21
> 100 µM: TGI [1] | TGI [5] | TGI [9] | TGI [6] | TGI [7] | TGI [8]

COc1cc(-c2oc3c(OC)c(OC)cc(O)c3c(=O)c2OC)ccc1O
inactive: GI50 [1] 1.84 µM and 4.71 µM | GI50 [4] 2.52 µM and 6.91 µM | GI50 [5] > 100 µM and 20 µM
> 100 µM: TGI [5] | TGI [6] | TGI [8]
31.3 µM and > 50 µM: TGI [2]
14.3 µM: TGI [9]
> 100 µM and 32.7 µM: TGI [4]
> 50 µM: TGI [3] | TGI [10]
